Data published in ChEMBL document CHEMBL1862790, “Optimisation of fenarimol series for the treatment of Chagas disease”.
Several values for one entry are separate records, joined by “and”; a condition that tells them apart may be missing. Equal values may be shown once.

Key:
Trypanosoma cruzi [1] = assay: microbe, parasite or virus in culture; type: functional, organism-based, Tulahuen LacZ, Clone C4
Trypanosoma cruzi [2] = assay: microbe, parasite or virus in culture; type: functional, Tulahuen LacZ, Clone C4
[3] = DNDI: Cytotoxicity against L-6 rat myoblasts from skeletal muscle cells; details: L6 rat skeletal muscle myoblast cells, IC50
[4] = Trypanosoma cruzi, Tulahuen LacZ, Clone C4

| SMILES | IC50 (Trypanosoma cruzi [1]; [4]) | IC90 (Trypanosoma cruzi [2]; [4]) | IC50 [3] | IC50 (Trypanosoma cruzi [1]) | IC90 (Trypanosoma cruzi [2]) |
| --- | --- | --- | --- | --- | --- |
| O=S(=O)(c1ccccc1)N1CCC(NC(c2ccc(C(F)(F)F)cc2)c2cnccn2)CC1 (stereo not given) | 170 nM | 320 nM | > 100 µM |  |  |
| CC(C)Oc1ccc(C(O)(c2ccc(Cl)cc2)c2cncnc2)cn1 (stereo not given) | 40 nM | 100 nM | 85.9 µM |  |  |
| Cc1nocc1C(=O)N1CCC(NC(c2ccc(C(F)(F)F)cc2)c2cccnc2)CC1 (stereo not given) | 164 nM | 584 nM | > 100 µM |  |  |
| CC(C)c1ccc(S(=O)(=O)N2CCC(NC(c3ccc(C(F)(F)F)cc3)c3cnccn3)CC2)cc1 (stereo not given) | 100 nM | 270 nM | 22 µM |  |  |
| N#Cc1ccc(C(O)(c2ccc(C(F)(F)F)cc2)c2cccnc2)cc1 (stereo not given) | 12 nM | 32 nM | 63.3 µM | 18 nM | 33 nM |
| Cn1ccnc1C(=O)NC1CCN(C(c2ccc(C#N)cc2)c2cccnc2)CC1 (stereo not given) | 239 nM | 482 nM | > 100 µM |  |  |
| Clc1ccc(C(NCCc2c[nH]c3ccccc23)c2cccnc2)cc1 (stereo not given) | 14 nM | 190 nM | 48.7 µM |  |  |
| O=C(C1CCCCC1)N1CCN(C(c2ccc(Cl)cc2)c2cncnc2)CC1 (stereo not given) | 320 nM | 920 nM | > 100 µM |  |  |
| N#CC(c1ccc(Cl)cc1)N1CCN(c2ccccc2)CC1 (stereo not given) | > 1000 nM | > 1000 nM | > 100 µM |  |  |
| N#Cc1ccc(C(c2cccnc2)N2CCC(NC(=O)c3ccc(F)cc3)CC2)cc1 (stereo not given) | 18.5 nM | 122 nM | > 100 µM |  |  |
| CS(=O)(=O)N1CCN(C(c2cccnc2)c2ccc(Cl)cc2F)CC1 (stereo not given) |  |  | > 100 µM | 35 nM and 46 nM | 160 nM and 110 nM |
| N#Cc1ccc(C(c2cccnc2)N2CCC(NC(=O)c3cc[nH]n3)CC2)cc1 (stereo not given) | 448 nM | 917 nM | > 100 µM |  |  |
| CC(C)C(CO)N1CCC(NC(c2ccc(Cl)cc2)c2cccnc2)CC1 (stereo not given) | 62 nM | > 100 nM | > 100 µM |  |  |
| O=C(NC1CC1)N1CCN(C(c2ccc(C(F)(F)F)cc2)c2cncnc2)CC1 (stereo not given) | > 1000 nM | > 1000 nM | > 100 µM |  |  |
| O=C(c1cscn1)N1CCC(NC(c2cccnc2)c2ccc(Cl)cc2F)CC1 (stereo not given) | 241 nM | 832 nM | > 100 µM |  |  |
| CN(C)C(=O)NC(c1ccc(C(F)(F)F)cc1)c1cnccn1 (stereo not given) | > 1000 nM | > 1000 nM | > 100 µM |  |  |
| Cc1nc(C)c(C(=O)N2CCC(NC(c3ccc(C(F)(F)F)cc3)c3cccnc3)CC2)s1 (stereo not given) | 216 nM | 658 nM | > 100 µM |  |  |
| NC(=O)c1cccc(C(O)(c2cncnc2)c2ccc(Cl)cc2F)c1 (stereo not given) | 86.5 nM | 426 nM | > 100 µM |  |  |
| Cc1nc(C(=O)NC2CCN(C(c3ccc(C#N)cc3)c3cccnc3)CC2)co1 (stereo not given) | 114 nM | 272 nM | > 100 µM |  |  |
| O/N=C(\c1ccc(Cl)cc1)c1ccccc1Cl | 46400 nM | 93000 nM | 54.9 µM |  |  |
| Cc1ccc(C(O)(c2ccc(Cl)cc2)c2cccnc2)s1 (stereo not given) | 24 nM | 67 nM | > 100 µM |  |  |
| O=S1(=O)CCCN1C1CCN(C(c2ccc(Cl)cc2)c2cccnc2)CC1 (stereo not given) | 17 nM | 100 nM | > 100 µM |  |  |
| CS(=O)(=O)N1CCN(C(c2ccc(C(F)(F)F)cc2)c2cncnc2)CC1 (stereo not given) | 768 nM | > 1000 nM | > 100 µM |  |  |

| SMILES | IC50 (Trypanosoma cruzi [1]; [4]) | IC90 (Trypanosoma cruzi [2]; [4]) | IC50 [3] | IC50 (Trypanosoma cruzi [1]) | IC90 (Trypanosoma cruzi [2]) |
| --- | --- | --- | --- | --- | --- |
| O=C(NC1CC1)c1cccc(C(O)(c2ccc(Cl)cc2)c2cccnc2)c1 (stereo not given) | 180 nM | 330 nM | 72.3 µM |  |  |
| Cc1cc(C(=O)NC2CCN(C(c3ccc(C(F)(F)F)cc3)c3cccnc3)CC2)no1 (stereo not given) | 9.3 nM | 27 nM | 47.4 µM |  |  |
| N#Cc1ccc(C(O)(c2ccc(Cl)cc2)c2cccnc2)c(F)c1 (stereo not given) | 26 nM | 110 nM | > 100 µM |  |  |
| CC(C)(C)OC(=O)N1CCC(NC(c2ccc(C(F)(F)F)cc2)c2cnccn2)CC1 (stereo not given) | 58 nM | 140 nM | 62.8 µM |  |  |
| O=C(N1CCN(C(c2ccc(C(F)(F)F)cc2)c2cccnc2)CC1)C(F)(F)F (stereo not given) | 321 nM | 798 nM | 62.6 µM |  |  |
| Cc1nocc1C(=O)NC1CCN(C(c2ccc(C#N)cc2)c2cccnc2)CC1 (stereo not given) | 55 nM | 101 nM | > 100 µM |  |  |
| Fc1cnc(N2CCC(NC(c3cccnc3)c3ccc(Cl)cc3F)CC2)nc1 (stereo not given) | 32 nM | 93.5 nM | 73.3 µM |  |  |
| O=C(NC1CCN(C(c2cccnc2)c2ccc(Cl)cc2F)CC1)c1ccccc1 (stereo not given) | 8.25 nM | 83.3 nM | 56.4 µM |  |  |
| Cc1oncc1C(=O)N1CCC(NC(c2ccc(C(F)(F)F)cc2)c2cccnc2)CC1 (stereo not given) | 69.5 nM | 470 nM | > 100 µM |  |  |
| OC(c1ccccc1)(c1cncnc1)c1ccccc1Cl (stereo not given) | 2510 nM | 70000 nM | > 100 µM |  |  |
| O=C(C1CC1)N1CCN(C(c2ccc(C(F)(F)F)cc2)c2cncnc2)CC1 (stereo not given) | 332 nM | 652 nM | > 100 µM |  |  |
| CC(C)S(=O)(=O)NC1CCN(C(c2ccc(C(F)(F)F)cc2)c2cnccn2)CC1 (stereo not given) | 560 nM | 940 nM | > 100 µM |  |  |
| CC(C)(C)NC(=O)N1CCC(NC(c2ccc(C#N)cc2)c2cccnc2)CC1 (stereo not given) | 585 nM | 996 nM | > 100 µM |  |  |
| O=C(NC1CCN(C(c2ccc(C(F)(F)F)cc2)c2cnccn2)CC1)c1ccc(C(F)(F)F)cc1 (stereo not given) | 100 nM | 300 nM | 57.4 µM |  |  |
| O=C(NC1CCN(C(c2ccc(C(F)(F)F)cc2)c2cccnc2)CC1)C1CC1 (stereo not given) | 72 nM | 280 nM | > 100 µM |  |  |
| O=S(=O)(C1CCCCC1)N1CCC(NC(c2ccc(C(F)(F)F)cc2)c2cnccn2)CC1 (stereo not given) | 570 nM | 970 nM | 62.6 µM |  |  |
| O=C(NC1CCN(C(c2ccc(C(F)(F)F)cc2)c2cnccn2)CC1)C1CC1 (stereo not given) | 660 nM | > 1000 nM | > 100 µM | 575 nM | 1290 nM |
| O=S(=O)(c1ccc(C(F)(F)F)cc1)N1CCC(NC(c2cnccn2)c2ccc(F)cc2F)CC1 (stereo not given) | 360 nM | 820 nM | 62.7 µM |  |  |
| Clc1ccc(C(NC2CCN(c3ccc(Br)cn3)CC2)c2cccnc2)cc1 (stereo not given) | 25.7 nM | 84 nM | 61.8 µM |  |  |
| NC(=O)c1ccc(C(O)(c2ccc(C(F)(F)F)cc2)c2cccnc2)cc1 (stereo not given) | 120 nM | 390 nM | > 100 µM |  |  |
| O=C(c1ccccc1)N1CCC(NC(c2ccc(C(F)(F)F)cc2)c2cncs2)CC1 (stereo not given) | 33 nM | 106 nM | 76.1 µM |  |  |
| CC(C)CC(=O)N1CCC(NC(c2cnccn2)c2ccc(F)cc2F)CC1 (stereo not given) | 550 nM | > 1000 nM | > 100 µM |  |  |
| FC(F)(F)c1ccc(C(NC2CCN(c3cncs3)CC2)c2cccnc2)cc1 (stereo not given) | 25 nM | 118 nM | 59.9 µM |  |  |

| SMILES | IC50 (Trypanosoma cruzi [1]; [4]) | IC90 (Trypanosoma cruzi [2]; [4]) | IC50 [3] | IC50 (Trypanosoma cruzi [1]) | IC90 (Trypanosoma cruzi [2]) |
| --- | --- | --- | --- | --- | --- |
| Cn1cc(C(=O)NC2CCN(C(c3ccc(C(F)(F)F)cc3)c3cccnc3)CC2)c(C(F)(F)F)n1 (stereo not given) | 16 nM | 36.5 nM | 53.4 µM |  |  |
| O=C(NC1CCN(C(c2cncnc2)c2ccc(Cl)cc2F)CC1)c1ccc(F)cc1F (stereo not given) | 15 nM | 114 nM | 81 µM |  |  |
| COc1cncc(C(O)(c2ccc(C(F)(F)F)cc2)c2ccc(Cl)cc2F)c1 (stereo not given) | 122 nM | 318 nM | 67.4 µM |  |  |
| OC(c1cccnc1)c1ccc(Cl)cc1F (stereo not given) | > 1000 nM | > 1000 nM | > 100 µM |  |  |
| CC(C)(C)NC(=O)N1CCC(NC(c2ccc(Cl)cc2)c2cccnc2)CC1 (stereo not given) | 60 nM | 230 nM | > 100 µM |  |  |
| N#Cc1ccc(C(c2cccnc2)N2CCC(NC(=O)c3cscn3)CC2)cc1 (stereo not given) | 174 nM | 298 nM | > 100 µM |  |  |
| N#Cc1ccc(C(c2cccnc2)N2CCC(NC(=O)c3cccc(F)c3)CC2)cc1 (stereo not given) | 39 nM | 368 nM | > 100 µM |  |  |
| Cc1nnc(N2CCC(NC(c3ccc(C(F)(F)F)cc3)c3cccnc3)CC2)s1 (stereo not given) | 69.5 nM | 168 nM | > 100 µM |  |  |
| CCN(CC)C(=O)NC1CCN(C(c2ccc(OC(C)C)cc2)c2cccnc2)CC1 (stereo not given) | 87 nM | 280 nM | > 100 µM |  |  |
| CC(C)CS(=O)(=O)N1CCC(NC(c2cnccn2)c2ccc(F)cc2F)CC1 (stereo not given) | 560 nM | 960 nM | > 100 µM |  |  |
| Fc1cc(Cl)ccc1C(NC1CCN(Cc2ccc(C(F)(F)F)cc2)CC1)c1cccnc1 (stereo not given) | 48 nM | 93 nM | 26.6 µM |  |  |
| Fc1ccccc1N1CCC(NC(c2ccc(C(F)(F)F)cc2)c2cccnc2)CC1 (stereo not given) | 17 nM | 30.5 nM | 53.1 µM |  |  |
| CCNC(=O)N1CCN(C(c2cncnc2)c2ccc(Cl)cc2F)CC1 (stereo not given) | 290 nM | 770 nM | > 100 µM |  |  |
| CC(C)CNC(c1ccc(Cl)cc1)c1cccnc1 (stereo not given) | 200 nM | 430 nM | > 100 µM |  |  |
| CCCCC(O)(c1ccc(OC(C)C)cc1)c1cccnc1 (stereo not given) | 17 nM | 36 nM | 55.9 µM |  |  |
| OC(c1ccc(Cl)cc1)(c1cnccn1)c1ccccc1Cl (stereo not given) | 440 nM | 7900 nM | > 100 µM |  |  |
| CN(CC1CCCCC1)C(c1ccc(C(F)(F)F)cc1)c1cnccn1 (stereo not given) | 480 nM | 820 nM | 55.6 µM |  |  |
| N#Cc1ccc(C(c2cccnc2)N2CCN(C(=O)NC3CC3)CC2)cc1 (stereo not given) | > 1000 nM | > 1000 nM | > 100 µM |  |  |
| FC(F)(F)c1ccc(C(NCC2CCCCC2)c2cnccn2)cc1 (stereo not given) | 390 nM | 740 nM | 59.2 µM |  |  |
| CC(C)(C)NC(=O)N1CCC(NC(c2ccc(C(F)(F)F)cc2)c2cccnc2)CC1 (stereo not given) | 48 nM | 402 nM | > 100 µM | 61 nM | 207 nM |
| CC(C)S(=O)(=O)N1CCN(C(c2cncnc2)c2ccc(Cl)cc2F)CC1 (stereo not given) | 120 nM | 330 nM | > 100 µM |  |  |
| CC(C)(C)OC(=O)N1CCC(CNC(c2ccc(C(F)(F)F)cc2)c2cnccn2)CC1 (stereo not given) | 76 nM | 260 nM | 73.3 µM |  |  |
